Target: T1, StSPL (S1P lyase from Symbiobacterium thermophilum) (Symbiobacterium thermophilum, UniProt Q67PY4)
T1 construct: gene STH1274; full-length STH1274, C-terminal His-tag, expressed in E. coli, 507 residues, 55 kDa monomer, homodimer (110 kDa); PLP-dependent, residues of both subunits form the active site
Assay: visible spectrum of enzyme-bound cofactor, change on substrate addition
Assay type: binding
Conditions: Schiff base with K311, covalent; S1P added; purified in PBS with 10 µM PLP

T1 sequence (Q67PY4 entry or part of it): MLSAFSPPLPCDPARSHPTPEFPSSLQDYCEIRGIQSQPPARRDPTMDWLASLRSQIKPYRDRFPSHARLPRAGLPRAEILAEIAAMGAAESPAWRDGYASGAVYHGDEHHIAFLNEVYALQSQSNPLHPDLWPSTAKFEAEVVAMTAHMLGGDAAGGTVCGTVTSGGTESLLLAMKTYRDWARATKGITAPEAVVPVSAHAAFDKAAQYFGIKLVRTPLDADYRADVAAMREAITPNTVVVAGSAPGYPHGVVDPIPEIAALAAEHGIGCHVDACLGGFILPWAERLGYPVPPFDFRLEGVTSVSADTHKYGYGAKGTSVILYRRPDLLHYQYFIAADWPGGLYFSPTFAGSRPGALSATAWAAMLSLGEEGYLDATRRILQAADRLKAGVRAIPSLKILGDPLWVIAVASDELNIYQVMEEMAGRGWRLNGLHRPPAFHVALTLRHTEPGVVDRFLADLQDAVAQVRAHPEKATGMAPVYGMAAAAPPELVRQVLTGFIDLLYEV

Cc1ncc(COP(=O)(O)O)c(C=O)c1O [PLP, pyridoxal-5′-phosphate]
visible spectrum of enzyme-bound cofactor, change on substrate addition: recording spectrophotometric changes of the cofactor upon catalysis

— publication PMC3148216, “A Prokaryotic S1P Lyase Degrades Extracellular S1P In Vitro and In Vivo: Implication for Treating Hyperproliferative Disorders” (PLoS ONE, 2011)
